Assay results from ChEMBL document CHEMBL1148552, “Pulvinones as bacterial cell wall biosynthesis inhibitors” (Bioorg Med Chem Lett, 2006).
Values after ≈ are worked out from the molar mass of the structure shown.

Assays:
Staphylococcus aureus [1] = assay: Antibacterial activity against methicillin resistant Staphylococcus aureus; type: functional; conditions: GC 1131
Staphylococcus aureus [2] = assay: Antibacterial activity against Staphylococcus aureus; type: functional; conditions: GC 4543
Enterococcus faecalis [3] = assay: Antibacterial activity against vancomycin resistant Enterococcus faecalis; type: functional; conditions: GC 2242
[4] = target: T1, UDP-N-acetylmuramoylalanine--D-glutamate ligase (Escherichia coli K-12, UniProt P14900); assay: Inhibitory activity against MurD in Escherichia coli
T1 sequence (P14900 whole entry): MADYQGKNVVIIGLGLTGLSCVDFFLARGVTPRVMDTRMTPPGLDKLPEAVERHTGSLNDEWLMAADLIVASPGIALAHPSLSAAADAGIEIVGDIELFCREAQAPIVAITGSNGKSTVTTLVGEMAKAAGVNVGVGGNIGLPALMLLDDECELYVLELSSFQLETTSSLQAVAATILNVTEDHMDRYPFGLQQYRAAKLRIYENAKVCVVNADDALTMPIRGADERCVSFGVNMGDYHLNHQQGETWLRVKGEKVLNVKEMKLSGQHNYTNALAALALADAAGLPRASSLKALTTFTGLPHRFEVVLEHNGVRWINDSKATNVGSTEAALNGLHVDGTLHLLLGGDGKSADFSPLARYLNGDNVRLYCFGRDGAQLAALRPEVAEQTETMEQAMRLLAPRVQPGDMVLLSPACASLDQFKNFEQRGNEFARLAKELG

Enterococcus faecalis [5] = assay: Antibacterial activity against Enterococcus faecalis; type: functional; conditions: GC 4555
[6] = target: UDP-N-acetylglucosamine 1-carboxyvinyltransferase (Escherichia coli K-12, UniProt P0A749); assay: Inhibitory activity against MurA in Escherichia coli
UDP-N-acetylglucosamine 1-carboxyvinyltransferase, sequence (P0A749 whole entry): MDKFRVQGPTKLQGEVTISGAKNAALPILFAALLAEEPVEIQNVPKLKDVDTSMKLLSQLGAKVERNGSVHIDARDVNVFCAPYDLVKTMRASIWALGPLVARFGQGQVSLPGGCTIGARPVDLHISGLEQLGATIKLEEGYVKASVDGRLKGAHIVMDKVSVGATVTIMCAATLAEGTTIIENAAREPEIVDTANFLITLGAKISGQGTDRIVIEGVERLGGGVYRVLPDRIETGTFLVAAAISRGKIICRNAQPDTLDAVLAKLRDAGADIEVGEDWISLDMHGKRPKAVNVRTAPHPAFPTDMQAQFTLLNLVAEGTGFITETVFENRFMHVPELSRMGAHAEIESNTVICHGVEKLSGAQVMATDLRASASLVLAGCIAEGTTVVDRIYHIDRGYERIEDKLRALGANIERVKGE

[7] = target: T2, UDP-N-acetylenolpyruvoylglucosamine reductase (Escherichia coli K-12, UniProt P08373); assay: Inhibitory activity against MurB in Escherichia coli
T2 sequence (P08373 whole entry): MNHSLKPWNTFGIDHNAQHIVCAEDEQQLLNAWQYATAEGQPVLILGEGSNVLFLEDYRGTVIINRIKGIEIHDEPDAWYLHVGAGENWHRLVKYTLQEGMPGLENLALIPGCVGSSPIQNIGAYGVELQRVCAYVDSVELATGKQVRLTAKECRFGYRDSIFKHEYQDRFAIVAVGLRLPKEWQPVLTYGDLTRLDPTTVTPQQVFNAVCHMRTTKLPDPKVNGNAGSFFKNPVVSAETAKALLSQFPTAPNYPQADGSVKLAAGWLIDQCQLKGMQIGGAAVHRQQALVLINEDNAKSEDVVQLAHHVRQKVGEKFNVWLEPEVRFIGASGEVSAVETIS

Streptococcus pneumoniae = assay: Antibacterial activity against penicillin resistant Streptococcus pneumoniae; type: functional; conditions: GC 1894
[8] = target: UDP-N-acetylmuramate--L-alanine ligase (Escherichia coli K-12, UniProt P17952); assay: Inhibitory activity against MurC in Escherichia coli
UDP-N-acetylmuramate--L-alanine ligase, sequence (P17952 whole entry): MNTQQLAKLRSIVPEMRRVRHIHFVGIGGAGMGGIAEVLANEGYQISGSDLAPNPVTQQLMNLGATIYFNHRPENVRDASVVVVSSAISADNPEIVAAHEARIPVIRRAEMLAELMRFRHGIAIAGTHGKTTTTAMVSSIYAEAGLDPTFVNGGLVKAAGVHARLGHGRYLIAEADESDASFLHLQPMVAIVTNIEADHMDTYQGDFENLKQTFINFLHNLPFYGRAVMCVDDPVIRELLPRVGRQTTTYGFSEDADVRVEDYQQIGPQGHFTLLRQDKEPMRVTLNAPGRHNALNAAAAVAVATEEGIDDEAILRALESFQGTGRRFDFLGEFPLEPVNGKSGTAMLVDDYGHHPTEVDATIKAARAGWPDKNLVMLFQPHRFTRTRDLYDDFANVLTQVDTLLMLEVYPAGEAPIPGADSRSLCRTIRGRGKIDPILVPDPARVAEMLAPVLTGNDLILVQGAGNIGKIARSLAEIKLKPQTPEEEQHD

[9] = target: T3, UDP-N-acetylmuramoylalanine--D-glutamate ligase (Staphylococcus aureus, UniProt P0A091); assay: Inhibitory activity against MurD in Staphylococcus aureus
T3 sequence (P0A091 whole entry): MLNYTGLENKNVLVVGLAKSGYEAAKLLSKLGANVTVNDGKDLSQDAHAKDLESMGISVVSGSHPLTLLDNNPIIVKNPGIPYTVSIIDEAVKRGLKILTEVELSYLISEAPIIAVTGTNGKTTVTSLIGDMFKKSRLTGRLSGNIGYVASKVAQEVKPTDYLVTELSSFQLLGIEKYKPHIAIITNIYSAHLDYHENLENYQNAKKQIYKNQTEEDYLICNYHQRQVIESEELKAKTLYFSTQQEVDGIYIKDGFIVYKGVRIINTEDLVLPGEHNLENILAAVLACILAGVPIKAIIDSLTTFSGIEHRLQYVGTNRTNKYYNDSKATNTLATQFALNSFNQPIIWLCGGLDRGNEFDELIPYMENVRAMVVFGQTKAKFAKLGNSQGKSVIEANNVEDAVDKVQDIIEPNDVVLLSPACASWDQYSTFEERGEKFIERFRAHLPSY

Row | Compound | MIC (Staphylococcus aureus [1]) | MIC (Staphylococcus aureus [2]) | MIC (Enterococcus faecalis [3]) | IC50 [4] | MIC (Enterococcus faecalis [5]) | IC50 [6] | IC50 [7] | MIC (Streptococcus pneumoniae) | IC50 [8] | IC50 [9]
1 | COc1ccc(C2=C(O)O/C(=C\c3cccc4ccccc34)C2=O)cc1 | 32 µg/mL (≈ 92.9 µM) | 64 µg/mL (≈ 186 µM) | 32 µg/mL (≈ 92.9 µM) | > 72.6 µM | > 128 µg/mL | > 72.6 µM | > 72.6 µM | 8 µg/mL (≈ 23.2 µM) | 46.5 µM | 
2 | O=C1O/C(=C\c2cccc3ccccc23)C(O)=C1c1ccc(Cl)cc1 | 8 µg/mL (≈ 22.9 µM) | 8 µg/mL (≈ 22.9 µM) | 8 µg/mL (≈ 22.9 µM) | > 71.7 µM | 16 µg/mL (≈ 45.9 µM) | > 71.7 µM |  | 0.5 µg/mL (≈ 1.43 µM) |  | 
3 | O=C1O/C(=C\c2ccc(Cl)cc2)C(O)=C1c1ccc(-c2ccccc2)cc1 | 16 µg/mL (≈ 42.7 µM) | 16 µg/mL (≈ 42.7 µM) | 4 µg/mL (≈ 10.7 µM) | > 66.7 µM | 8 µg/mL (≈ 21.3 µM) | > 66.7 µM |  | 1 µg/mL (≈ 2.67 µM) |  | 
4 | O=C1O/C(=C\c2cccc(C(F)(F)F)c2)C(O)=C1c1cccc2ccccc12 | 32 µg/mL (≈ 83.7 µM) | 64 µg/mL (≈ 167 µM) | 32 µg/mL (≈ 83.7 µM) | > 65.4 µM | > 128 µg/mL | > 65.4 µM | > 65.4 µM | 8 µg/mL (≈ 20.9 µM) |  | 
5 | O=C1O/C(=C\c2cccc(-c3cc(Cl)cc(Cl)c3)c2)C(O)=C1c1cc(Cl)cc(Cl)c1 | 0.25 µg/mL (≈ 0.523 µM) | 0.25 µg/mL (≈ 0.523 µM) | 0.5 µg/mL (≈ 1.05 µM) |  | 1 µg/mL (≈ 2.09 µM) | 4.18 µM |  | 0.25 µg/mL (≈ 0.523 µM) |  | 12.5 µM
6 | O=C1O/C(=C\c2cccc(C(F)(F)F)c2)C(O)=C1c1ccc2ccccc2c1 | 8 µg/mL (≈ 20.9 µM) | 8 µg/mL (≈ 20.9 µM) | 8 µg/mL (≈ 20.9 µM) | > 65.4 µM | 32 µg/mL (≈ 83.7 µM) |  |  | 8 µg/mL (≈ 20.9 µM) |  | 
7 | O=C1O/C(=C\c2cccc(C(F)(F)F)c2Cl)C(O)=C1c1ccc(-c2ccccc2)c(F)c1 | 1 µg/mL (≈ 2.17 µM) | 1 µg/mL (≈ 2.17 µM) | 0.5 µg/mL (≈ 1.09 µM) |  | 2 µg/mL (≈ 4.34 µM) |  |  | 0.25 µg/mL (≈ 0.543 µM) |  | 
8 | O=C1O/C(=C\c2cccc(-c3cccc(Cl)c3)c2)C(O)=C1c1cccc(Cl)c1 | > 128 µg/mL | 1 µg/mL (≈ 2.44 µM) | 4 µg/mL (≈ 9.77 µM) |  | 8 µg/mL (≈ 19.5 µM) |  |  | 1 µg/mL (≈ 2.44 µM) |  | 
9 | O=C1O/C(=C\c2cccc(C(F)(F)F)c2)C(O)=C1c1ccc(-c2ccccc2)cc1 | 4 µg/mL (≈ 9.79 µM) | 4 µg/mL (≈ 9.79 µM) | 4 µg/mL (≈ 9.79 µM) | > 61.2 µM | 8 µg/mL (≈ 19.6 µM) |  | 12.2 µM | 0.5 µg/mL (≈ 1.22 µM) |  | 
10 | COc1ccc(C2=C(O)O/C(=C\c3cccc(C(F)(F)F)c3)C2=O)cc1 | 1 µg/mL (≈ 2.76 µM) | 128 µg/mL (≈ 353 µM) | 64 µg/mL (≈ 177 µM) | 69 µM | 128 µg/mL (≈ 353 µM) | > 69 µM | > 69 µM | 2 µg/mL (≈ 5.52 µM) | 38.6 µM | 
11 | O=C1O/C(=C\c2cc(C(F)(F)F)ccc2F)C(O)=C1c1ccc(-c2ccccc2)c(F)c1 | 2 µg/mL (≈ 4.5 µM) | 2 µg/mL (≈ 4.5 µM) | 2 µg/mL (≈ 4.5 µM) |  | 2 µg/mL (≈ 4.5 µM) |  |  | 0.5 µg/mL (≈ 1.13 µM) |  | 
12 | O=C1O/C(=C\c2ccc3ccccc3c2)C(O)=C1c1cccc(C(F)(F)F)c1 | 8 µg/mL (≈ 20.9 µM) | 8 µg/mL (≈ 20.9 µM) | 4 µg/mL (≈ 10.5 µM) | > 65.4 µM | 16 µg/mL (≈ 41.8 µM) | > 65.4 µM |  | 0.5 µg/mL (≈ 1.31 µM) |  | 
13 | COc1ccccc1-c1ccc(/C=C2\OC(O)=C(c3cc(Cl)cc(Cl)c3)C2=O)cc1OC | 2 µg/mL (≈ 4.26 µM) | 2 µg/mL (≈ 4.26 µM) | 8 µg/mL (≈ 17 µM) | > 53.3 µM | 8 µg/mL (≈ 17 µM) | 36.2 µM | 12.8 µM | 0.5 µg/mL (≈ 1.07 µM) | 12.8 µM | 
14 | O=C1O/C(=C\C2CCCCC2)C(O)=C1c1ccc2ccccc2c1 | > 128 µg/mL | 16 µg/mL (≈ 49.9 µM) | 8 µg/mL (≈ 25 µM) |  | 32 µg/mL (≈ 99.9 µM) |  |  | ≤ 0.12 µg/mL |  | 
15 | O=C1O/C(=C\c2ccc(-c3cc(Cl)cc(Cl)c3)cc2)C(O)=C1c1cc(Cl)cc(Cl)c1 | 4 µg/mL (≈ 8.37 µM) | 0.5 µg/mL (≈ 1.05 µM) | 0.5 µg/mL (≈ 1.05 µM) |  | 1 µg/mL (≈ 2.09 µM) |  |  | ≤ 0.12 µg/mL |  | 
16 | O=C1O/C(=C\C2CCCCC2)C(O)=C1c1cccc(C(F)(F)F)c1 | 32 µg/mL (≈ 94.6 µM) | > 128 µg/mL | 32 µg/mL (≈ 94.6 µM) | > 73.9 µM | 64 µg/mL (≈ 189 µM) | > 73.9 µM | > 73.9 µM | ≤ 0.12 µg/mL |  | 
17 | O=C1O/C(=C\c2ccc(-c3ccccc3)cc2)C(O)=C1c1cccc2ccccc12 | 8 µg/mL (≈ 20.5 µM) | 4 µg/mL (≈ 10.2 µM) | 8 µg/mL (≈ 20.5 µM) | > 64 µM | 32 µg/mL (≈ 82 µM) |  | > 64 µM | 4 µg/mL (≈ 10.2 µM) |  | 
18 | O=C1O/C(=C\c2ccc(-c3ccccc3)cc2)C(O)=C1c1ccc2ccccc2c1 | 16 µg/mL (≈ 41 µM) | 4 µg/mL (≈ 10.2 µM) | 4 µg/mL (≈ 10.2 µM) | > 64 µM | 8 µg/mL (≈ 20.5 µM) | > 64 µM |  | 2 µg/mL (≈ 5.12 µM) |  | 
19 | O=C1O/C(=C(/C(=O)Nc2cccc(C(F)(F)F)c2)c2ccccc2)C(O)=C1c1ccccc1 |  |  |  |  |  |  |  |  | 17.7 µM | 
20 | O=C1O/C(=C\c2ccccc2)C(O)=C1c1ccccc1 [PULVINONE] |  |  |  |  |  |  |  |  | ≤ 30.3 µM | 
21 | O=C1O/C(=C\c2cccc(C(F)(F)F)c2)C(O)=C1c1ccc(-c2ccccc2)c(F)c1 | 2 µg/mL (≈ 4.69 µM) | 2 µg/mL (≈ 4.69 µM) | 0.25 µg/mL (≈ 0.586 µM) | > 58.6 µM | 1 µg/mL (≈ 2.35 µM) | 23.5 µM |  | 0.25 µg/mL (≈ 0.586 µM) | 18.8 µM | 
22 | O=C1O/C(=C\c2cccc(C(F)(F)F)c2)C(O)=C1c1ccc(Cl)cc1 | 16 µg/mL (≈ 43.6 µM) | 8 µg/mL (≈ 21.8 µM) | 8 µg/mL (≈ 21.8 µM) | > 68.2 µM | 16 µg/mL (≈ 43.6 µM) | 38.2 µM | 24.5 µM | 1 µg/mL (≈ 2.73 µM) | 16.4 µM | 
23 | O=C1O/C(=C\c2cccc3ccccc23)C(O)=C1c1cccc(C(F)(F)F)c1 | 8 µg/mL (≈ 20.9 µM) | 8 µg/mL (≈ 20.9 µM) | 8 µg/mL (≈ 20.9 µM) | > 65.4 µM | 16 µg/mL (≈ 41.8 µM) | > 65.4 µM |  | 0.5 µg/mL (≈ 1.31 µM) |  | 
24 | O=C1O/C(=C\c2cc(C(F)(F)F)ccc2Cl)C(O)=C1c1ccc(-c2ccccc2)c(F)c1 | 1 µg/mL (≈ 2.17 µM) | 1 µg/mL (≈ 2.17 µM) | 1 µg/mL (≈ 2.17 µM) |  | 4 µg/mL (≈ 8.68 µM) |  |  | 0.25 µg/mL (≈ 0.543 µM) |  | 
